Values quoted from earlier work, collected in patent US6362158B1, “Multi-phase clear fabric softening composition” (Colgate-Palmolive Co., priority 2000, dated 2002).
“And” between values parts separate entries of the source, which are not always exact repeats. Equal entries are not always repeated. Where two headings read alike, the source gives them in different places.

Conditions: solvent, logarithm to base 10 of P

OCCCCO [1-4 Butanediol]
log P (octanol/water partition coefficient): (log P = −1.3)

CCCOC(C)COC(C)CO (centres unmarked) [DPnP, dipropylene glycol n-propyl ether]
log P (octanol/water partition coefficient): 0.99)^2
log P (octanol/water partition coefficient) (listed as dipropylene glycol n-propyl ether): 0.994

CCCCCCCCCCO [Decanol]
log P (octanol/water partition coefficient): 3.32)

CCCCCCCCO [Octanol]
log P (octanol/water partition coefficient): 3.15)

CCCCCO [Pentanol]
log P (octanol/water partition coefficient): 1.3

CCCCOC(C)COC(C)COC(C)CO (centres unmarked) [TPnB, tripropylene glycol n-butyl ether]
log P (octanol/water partition coefficient): 1.896 and 1.9

CC(C)C(O)C(C)(C)CO (centres unmarked) [Trimethyl Pentanediol]
log P (octanol/water partition coefficient): 1.24
